Measurements reported in patent US11752188B2, “Compositions and methods for nutritional supplements” (DailyColors Health Inc., priority 2020, dated 2023).
Where two headings read alike, the source gives them in different places. One block for each compound: values may come before it.

Experiments:
Format in all cases: biochemical
recombinant human NAMPT = biological target: T1, recombinant human NAMPT (Homo sapiens, UniProt P43490); test: NAMPT in vitro enzymatic fluorescence assay
T1 construct: purchased 91004
Experimental: Assay Conditions: The control compound is dissolved in DMSO. The dilution of the compounds was first performed in 100% DMSO with the highest concentration at 0.01 mM. […] For NAMPT, the compounds (see 2.2) were preincubated with NAMPT enzyme (see 2.3.1) in for 30 minutes. […] The final concentration of DMSO in all reactions was 1%. Fluorescence intensity was measured at an excitation of 340 nm and an emission of 460 nm using a Tecan Infinite M1000 microplate reader.
Data Analysis: NAMPT activity assays were performed in duplicates at each concentration. […] In the absence of the compound, the fluorescent intensity (Ft) in each data set was defined as 100% activity. In the absence of NAMPT, the fluorescent intensity (Fb) in each data set was defined as 0% activity. The percent activity in the presence of each compound was calculated according to the following equation: % activity=(F−Fb)/(Ft−Fb), where F=the fluorescent intensity in the presence of the compound. The values of percentage activity were plotted on a bar graph.

recombinant human JAK1 = recombinant human JAK1 (Homo sapiens, UniProt P23458); test: JAK1 Kinase-Glo Plus luminescence kinase assay
recombinant human JAK3 = biological target: T2, recombinant human JAK3 (Homo sapiens, UniProt P52333); test: JAK3 Kinase-Glo Plus luminescence kinase assay
T2 sequence (P52333 1-1124): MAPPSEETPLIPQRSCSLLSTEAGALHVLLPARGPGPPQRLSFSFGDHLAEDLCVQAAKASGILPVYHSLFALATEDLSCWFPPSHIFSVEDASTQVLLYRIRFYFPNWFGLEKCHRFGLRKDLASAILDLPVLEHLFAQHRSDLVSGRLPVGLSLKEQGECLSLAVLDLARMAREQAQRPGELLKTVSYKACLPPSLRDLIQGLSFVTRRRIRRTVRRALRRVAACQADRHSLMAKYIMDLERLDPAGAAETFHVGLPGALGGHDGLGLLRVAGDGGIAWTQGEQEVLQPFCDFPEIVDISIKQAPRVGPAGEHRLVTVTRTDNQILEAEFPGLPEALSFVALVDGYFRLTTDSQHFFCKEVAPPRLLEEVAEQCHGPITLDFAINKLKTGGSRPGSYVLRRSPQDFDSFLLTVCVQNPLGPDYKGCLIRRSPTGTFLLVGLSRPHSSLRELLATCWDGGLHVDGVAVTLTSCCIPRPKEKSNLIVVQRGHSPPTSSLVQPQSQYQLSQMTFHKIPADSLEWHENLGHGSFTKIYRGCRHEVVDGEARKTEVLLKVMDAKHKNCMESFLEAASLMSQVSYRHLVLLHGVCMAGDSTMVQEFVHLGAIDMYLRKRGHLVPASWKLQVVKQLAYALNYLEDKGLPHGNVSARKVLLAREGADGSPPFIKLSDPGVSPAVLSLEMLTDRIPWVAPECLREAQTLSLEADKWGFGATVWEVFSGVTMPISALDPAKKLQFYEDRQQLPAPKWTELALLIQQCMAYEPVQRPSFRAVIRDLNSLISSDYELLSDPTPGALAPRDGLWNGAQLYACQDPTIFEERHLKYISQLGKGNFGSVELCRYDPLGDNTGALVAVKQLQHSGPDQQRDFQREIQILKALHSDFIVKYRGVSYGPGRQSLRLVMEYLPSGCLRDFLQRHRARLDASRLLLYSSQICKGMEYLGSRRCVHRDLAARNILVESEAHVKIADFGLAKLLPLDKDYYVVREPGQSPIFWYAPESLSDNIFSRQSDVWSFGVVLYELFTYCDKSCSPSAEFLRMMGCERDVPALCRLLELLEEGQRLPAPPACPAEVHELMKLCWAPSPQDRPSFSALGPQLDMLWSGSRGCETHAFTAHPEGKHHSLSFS

recombinant human JAK2 = recombinant human JAK2 (Homo sapiens, UniProt O60674); test: JAK2 Kinase-Glo Plus luminescence kinase assay
Sequence of recombinant human JAK2 (O60674 whole entry): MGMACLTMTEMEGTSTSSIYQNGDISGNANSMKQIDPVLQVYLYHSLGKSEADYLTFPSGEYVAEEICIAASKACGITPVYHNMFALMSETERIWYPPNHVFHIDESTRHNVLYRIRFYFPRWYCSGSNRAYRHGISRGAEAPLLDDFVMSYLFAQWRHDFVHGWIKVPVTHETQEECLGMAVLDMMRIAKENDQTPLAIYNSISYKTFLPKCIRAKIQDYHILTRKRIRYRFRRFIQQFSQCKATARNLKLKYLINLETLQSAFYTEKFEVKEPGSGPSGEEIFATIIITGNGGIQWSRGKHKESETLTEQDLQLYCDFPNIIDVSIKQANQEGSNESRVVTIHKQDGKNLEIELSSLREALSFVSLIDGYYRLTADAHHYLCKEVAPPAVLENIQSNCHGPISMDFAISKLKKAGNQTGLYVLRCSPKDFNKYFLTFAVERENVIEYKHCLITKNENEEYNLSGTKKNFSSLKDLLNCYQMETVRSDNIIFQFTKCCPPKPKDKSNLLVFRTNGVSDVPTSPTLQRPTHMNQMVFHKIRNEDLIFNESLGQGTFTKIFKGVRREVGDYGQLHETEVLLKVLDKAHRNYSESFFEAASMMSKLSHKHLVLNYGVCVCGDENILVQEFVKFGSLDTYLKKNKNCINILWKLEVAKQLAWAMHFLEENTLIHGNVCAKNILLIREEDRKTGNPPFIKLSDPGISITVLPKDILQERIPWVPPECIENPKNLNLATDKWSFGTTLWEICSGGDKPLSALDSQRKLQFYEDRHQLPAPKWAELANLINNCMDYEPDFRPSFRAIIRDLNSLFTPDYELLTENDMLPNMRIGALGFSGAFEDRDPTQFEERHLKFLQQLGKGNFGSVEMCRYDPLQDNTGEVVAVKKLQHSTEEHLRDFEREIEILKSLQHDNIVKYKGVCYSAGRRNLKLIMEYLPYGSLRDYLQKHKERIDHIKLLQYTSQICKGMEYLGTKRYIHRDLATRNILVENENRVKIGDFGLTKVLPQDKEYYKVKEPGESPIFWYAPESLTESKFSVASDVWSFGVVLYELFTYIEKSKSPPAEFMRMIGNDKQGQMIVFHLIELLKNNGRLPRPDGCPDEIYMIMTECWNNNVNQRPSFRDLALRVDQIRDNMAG

T1 sequence (P43490 whole entry): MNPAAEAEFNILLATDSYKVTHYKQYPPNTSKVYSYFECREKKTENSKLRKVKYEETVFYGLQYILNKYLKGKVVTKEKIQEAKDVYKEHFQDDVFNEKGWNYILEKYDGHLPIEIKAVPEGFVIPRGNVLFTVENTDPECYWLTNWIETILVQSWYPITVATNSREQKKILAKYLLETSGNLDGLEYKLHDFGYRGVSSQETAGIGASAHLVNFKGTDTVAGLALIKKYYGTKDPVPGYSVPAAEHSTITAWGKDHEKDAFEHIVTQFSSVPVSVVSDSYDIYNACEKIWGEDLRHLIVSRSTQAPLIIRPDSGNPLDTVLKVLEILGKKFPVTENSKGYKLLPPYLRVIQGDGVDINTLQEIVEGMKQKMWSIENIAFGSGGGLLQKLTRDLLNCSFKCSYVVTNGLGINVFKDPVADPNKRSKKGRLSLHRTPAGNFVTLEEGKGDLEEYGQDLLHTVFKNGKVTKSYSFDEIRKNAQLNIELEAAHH
Sequence of recombinant human JAK1 (P23458 whole entry): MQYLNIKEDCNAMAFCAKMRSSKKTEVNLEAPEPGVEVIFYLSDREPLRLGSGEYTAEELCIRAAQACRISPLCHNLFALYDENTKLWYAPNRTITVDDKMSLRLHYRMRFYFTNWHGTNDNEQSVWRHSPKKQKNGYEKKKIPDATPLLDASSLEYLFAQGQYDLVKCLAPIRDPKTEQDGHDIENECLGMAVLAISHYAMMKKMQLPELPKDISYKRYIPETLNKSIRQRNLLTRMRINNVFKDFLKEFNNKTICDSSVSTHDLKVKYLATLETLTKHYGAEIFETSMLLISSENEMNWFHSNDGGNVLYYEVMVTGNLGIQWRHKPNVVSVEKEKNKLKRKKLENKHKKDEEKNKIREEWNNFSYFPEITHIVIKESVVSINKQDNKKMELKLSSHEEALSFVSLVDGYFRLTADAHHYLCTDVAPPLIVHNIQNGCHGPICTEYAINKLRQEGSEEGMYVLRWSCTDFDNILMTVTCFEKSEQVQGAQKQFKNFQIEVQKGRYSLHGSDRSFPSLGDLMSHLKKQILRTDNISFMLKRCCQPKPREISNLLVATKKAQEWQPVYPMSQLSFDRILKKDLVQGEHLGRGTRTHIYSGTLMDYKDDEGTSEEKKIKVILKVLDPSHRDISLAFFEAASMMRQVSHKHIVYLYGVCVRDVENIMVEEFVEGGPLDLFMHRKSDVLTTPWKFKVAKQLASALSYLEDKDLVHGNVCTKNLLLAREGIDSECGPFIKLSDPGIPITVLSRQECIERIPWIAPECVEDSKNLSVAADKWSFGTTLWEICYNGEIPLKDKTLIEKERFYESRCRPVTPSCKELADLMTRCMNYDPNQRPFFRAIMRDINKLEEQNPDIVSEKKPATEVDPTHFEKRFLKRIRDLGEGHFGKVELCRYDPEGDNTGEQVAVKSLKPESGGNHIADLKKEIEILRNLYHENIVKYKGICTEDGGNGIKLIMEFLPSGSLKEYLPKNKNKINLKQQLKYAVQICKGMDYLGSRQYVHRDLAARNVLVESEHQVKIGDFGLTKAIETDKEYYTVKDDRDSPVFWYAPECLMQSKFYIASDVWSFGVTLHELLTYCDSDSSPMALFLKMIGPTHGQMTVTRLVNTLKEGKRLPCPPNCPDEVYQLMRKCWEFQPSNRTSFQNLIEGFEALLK

inhibition at 0.001 µM (recombinant human NAMPT): 4%
inhibition at 0.01 µM (recombinant human NAMPT): 57%
inhibition at 0.1 µM (recombinant human NAMPT): 100%
Background (Fluorescence count) Repeat 1 (recombinant human NAMPT; 0.001 μM): 450
Background (Fluorescence count) Repeat 2 (recombinant human NAMPT; 0.001 μM): 442
NAMPT Activity (Fluorescence Intensity) Repeat 1 (recombinant human NAMPT; 0.001 μM): 3328
NAMPT Activity (Fluorescence Intensity) Repeat 2 (recombinant human NAMPT; 0.001 μM): 3345
Background (Fluorescence count) Repeat 1 (recombinant human NAMPT; 0.01 μM): 454
Background (Fluorescence count) Repeat 2 (recombinant human NAMPT; 0.01 μM): 461
NAMPT Activity (Fluorescence Intensity) Repeat 1 (recombinant human NAMPT; 0.01 μM): 1750
NAMPT Activity (Fluorescence Intensity) Repeat 2 (recombinant human NAMPT; 0.01 μM): 1766
Background (Fluorescence count) Repeat 1 (recombinant human NAMPT; 0.1 μM): 440
Background (Fluorescence count) Repeat 2 (recombinant human NAMPT; 0.1 μM): 442
NAMPT Activity (Fluorescence Intensity) Repeat 1 (recombinant human NAMPT; 0.1 μM): 463
NAMPT Activity (Fluorescence Intensity) Repeat 2 (recombinant human NAMPT; 0.1 μM): 468
activity at 0.001 µM (recombinant human NAMPT; read-out: % Activity Repeat 1): 95%
activity at 0.01 µM (recombinant human NAMPT; read-out: % Activity Repeat 1): 42%
activity at 0.1 µM (recombinant human NAMPT; read-out: % Activity Repeat 1): 0%
activity at 0.001 µM (recombinant human NAMPT; read-out: % Activity Repeat 2): 96%
activity at 0.01 µM (recombinant human NAMPT; read-out: % Activity Repeat 2): 43%
activity at 0.1 µM (recombinant human NAMPT; read-out: % Activity Repeat 2): 0%
SMILES: O=C(/C=C/c1cccnc1)NCCCCC1CCN(C(=O)c2ccccc2)CC1 [FK-866]

SMILES: CN[C@@H]1C[C@H]2O[C@@](C)([C@@H]1OC)n1c3ccccc3c3c4c(c5c6ccccc6n2c5c31)C(=O)NC4 [Staurosporine]
inhibition at 0.001 µM (recombinant human JAK1): 7%
inhibition at 0.01 µM (recombinant human JAK1): 72%
Kinase Activity Luminescence Repeat1 (recombinant human JAK1; 0.001 μM, TABLE 68): 25176
Kinase Activity Luminescence Repeat2 (recombinant human JAK1; 0.001 μM, TABLE 68): 27054
Kinase Activity Luminescence Repeat1 (recombinant human JAK1; 1 nM, TABLE 71): 21164
Kinase Activity Luminescence Repeat2 (recombinant human JAK1; 1 nM, TABLE 71): 24810
Kinase Activity Luminescence Repeat1 (recombinant human JAK1; 0.01 μM, TABLE 68): 37642
Kinase Activity Luminescence Repeat2 (recombinant human JAK1; 0.01 μM, TABLE 68): 35358
Kinase Activity Luminescence Repeat1 (recombinant human JAK1; 10 nM, TABLE 71): 28640
Kinase Activity Luminescence Repeat2 (recombinant human JAK1; 10 nM, TABLE 71): 32000
Kinase Activity Luminescence Repeat1 (recombinant human JAK1; 0.1 μM, TABLE 68): 40161
Kinase Activity Luminescence Repeat2 (recombinant human JAK1; 0.1 μM, TABLE 68): 40781
Kinase Activity Luminescence Repeat1 (recombinant human JAK1; 100 nM, TABLE 71): 36908
Kinase Activity Luminescence Repeat2 (recombinant human JAK1; 100 nM, TABLE 71): 39509
activity at 0.001 µM (recombinant human JAK1; read-out: % Activity Repeat1, 0.001 μM, TABLE 68): 99%
activity at 0.001 µM (recombinant human JAK1; read-out: % Activity Repeat1, 1 nM, TABLE 71): 88%
activity at 0.01 µM (recombinant human JAK1; read-out: % Activity Repeat1, 10 nM, TABLE 71): 52%
activity at 0.1 µM (recombinant human JAK1; read-out: % Activity Repeat1, 0.1 μM, TABLE 68): 5%
activity at 0.1 µM (recombinant human JAK1; read-out: % Activity Repeat1, 100 nM, TABLE 71): 11%
activity at 0.001 µM (recombinant human JAK1; read-out: % Activity Repeat2, 0.001 μM, TABLE 68): 87%
activity at 0.001 µM (recombinant human JAK1; read-out: % Activity Repeat2, 1 nM, TABLE 71): 70%
activity at 0.1 µM (recombinant human JAK1; read-out: % Activity Repeat2, 0.1 μM, TABLE 68): 1%
activity at 0.1 µM (recombinant human JAK1; read-out: % Activity Repeat2, 100 nM, TABLE 71): 0%
inhibition at 0.01 µM (recombinant human JAK1; read-out: % Inhibition JAK1): 56%
inhibition at 0.1 µM (recombinant human JAK1; read-out: % Inhibition JAK1): 94%
inhibition at 0.001 µM (recombinant human JAK3): 19%
inhibition at 0.01 µM (recombinant human JAK3): 65%
inhibition at 0.1 µM (recombinant human JAK3): 100%
Kinase Activity Luminescence Repeat1 (recombinant human JAK3; 0.001 μM, TABLE 70): 23814
Kinase Activity Luminescence Repeat2 (recombinant human JAK3; 0.001 μM, TABLE 70): 23348
Kinase Activity Luminescence Repeat1 (recombinant human JAK3; 1 nM, TABLE 73): 21050
Kinase Activity Luminescence Repeat2 (recombinant human JAK3; 1 nM, TABLE 73): 24827
Kinase Activity Luminescence Repeat1 (recombinant human JAK3; 0.01 μM, TABLE 70): 32137
Kinase Activity Luminescence Repeat2 (recombinant human JAK3; 0.01 μM, TABLE 70): 32417
Kinase Activity Luminescence Repeat1 (recombinant human JAK3; 10 nM, TABLE 73): 32876
Kinase Activity Luminescence Repeat2 (recombinant human JAK3; 10 nM, TABLE 73): 34538
Kinase Activity Luminescence Repeat1 (recombinant human JAK3; 0.1 μM, TABLE 70): 39970
Kinase Activity Luminescence Repeat2 (recombinant human JAK3; 0.1 μM, TABLE 70): 40121
Kinase Activity Luminescence Repeat1 (recombinant human JAK3; 100 nM, TABLE 73): 37496
Kinase Activity Luminescence Repeat2 (recombinant human JAK3; 100 nM, TABLE 73): 39233
activity at 0.001 µM (recombinant human JAK3; read-out: % Activity Repeat1, 0.001 μM, TABLE 70): 80%
activity at 0.001 µM (recombinant human JAK3; read-out: % Activity Repeat1, 1 nM, TABLE 73): 84%
activity at 0.01 µM (recombinant human JAK3; read-out: % Activity Repeat1, 10 nM, TABLE 73): 27%
activity at 0.1 µM (recombinant human JAK3; read-out: % Activity Repeat1, 0.1 μM, TABLE 70): 0%
activity at 0.1 µM (recombinant human JAK3; read-out: % Activity Repeat1, 100 nM, TABLE 73): 5%
activity at 0.001 µM (recombinant human JAK3; read-out: % Activity Repeat2, 0.001 μM, TABLE 70): 82%
activity at 0.001 µM (recombinant human JAK3; read-out: % Activity Repeat2, 1 nM, TABLE 73): 66%
activity at 0.01 µM (recombinant human JAK3; read-out: % Activity Repeat2, 0.01 μM, TABLE 70): 35%
activity at 0.01 µM (recombinant human JAK3; read-out: % Activity Repeat2, 10 nM, TABLE 73): 20%
activity at 0.1 µM (recombinant human JAK3; read-out: % Activity Repeat2, 0.1 μM, TABLE 70): 0%
activity at 0.1 µM (recombinant human JAK3; read-out: % Activity Repeat2, 100 nM, TABLE 73): 0%
inhibition at 0.001 µM (recombinant human JAK3; read-out: % Inhibition JAK3): 25%
inhibition at 0.01 µM (recombinant human JAK3; read-out: % Inhibition JAK3): 77%
inhibition at 0.1 µM (recombinant human JAK3; read-out: % Inhibition JAK3): 97%
Kinase Activity Luminescence Repeat1 (recombinant human JAK2; 0.001 μM, TABLE 69): 19100
Kinase Activity Luminescence Repeat2 (recombinant human JAK2; 0.001 μM, TABLE 69): 20922
inhibition at 0.001 µM (recombinant human JAK2; 0.001 μM, TABLE 69): 0%
activity at 0.001 µM (recombinant human JAK2; 0.001 μM, TABLE 69, read-out: % Activity Repeat1): 105%
activity at 0.001 µM (recombinant human JAK2; 0.001 μM, TABLE 69, read-out: % Activity Repeat2): 96%
Kinase Activity Luminescence Repeat1 (recombinant human JAK2; 1 nM, TABLE 72): 9482
Kinase Activity Luminescence Repeat2 (recombinant human JAK2; 1 nM, TABLE 72): 10430
activity at 0.001 µM (recombinant human JAK2; 1 nM, TABLE 72, read-out: % Activity Repeat1): 89%
activity at 0.001 µM (recombinant human JAK2; 1 nM, TABLE 72, read-out: % Activity Repeat2): 86%
Kinase Activity Luminescence Repeat1 (recombinant human JAK2; 0.01 μM, TABLE 69): 36988
Kinase Activity Luminescence Repeat2 (recombinant human JAK2; 0.01 μM, TABLE 69): 36554
activity at 0.01 µM (recombinant human JAK2; 0.01 μM, TABLE 69, read-out: % Activity Repeat1): 16%
activity at 0.01 µM (recombinant human JAK2; 0.01 μM, TABLE 69, read-out: % Activity Repeat2): 18%
inhibition at 0.01 µM (recombinant human JAK2; 0.01 μM, TABLE 69, read-out: % Inhibition): 83%
Kinase Activity Luminescence Repeat1 (recombinant human JAK2; 10 nM, TABLE 72): 17529
Kinase Activity Luminescence Repeat2 (recombinant human JAK2; 10 nM, TABLE 72): 16180
activity at 0.01 µM (recombinant human JAK2; 10 nM, TABLE 72, read-out: % Activity Repeat1): 65%
activity at 0.01 µM (recombinant human JAK2; 10 nM, TABLE 72, read-out: % Activity Repeat2): 69%
inhibition at 0.01 µM (recombinant human JAK2; 10 nM, TABLE 74 summary, read-out: % Inhibition JAK2): 33%
Kinase Activity Luminescence Repeat1 (recombinant human JAK2; 0.1 μM, TABLE 69): 42700
Kinase Activity Luminescence Repeat2 (recombinant human JAK2; 0.1 μM, TABLE 69): 40639
inhibition at 0.1 µM (recombinant human JAK2; 0.1 μM, TABLE 69): 100%
activity at 0.1 µM (recombinant human JAK2; 0.1 μM, TABLE 69, read-out: % Activity Repeat1): 0%
activity at 0.1 µM (recombinant human JAK2; 0.1 μM, TABLE 69, read-out: % Activity Repeat2): 0%
Kinase Activity Luminescence Repeat1 (recombinant human JAK2; 100 nM, TABLE 72): 34660
Kinase Activity Luminescence Repeat2 (recombinant human JAK2; 100 nM, TABLE 72): 34762
